The assay deals with Influenza A virus. Description: Antiviral activity against influenza A virus H1N1 infected in MDCK cells assessed as inhibition of virus-induced cytopathic effect after 48 hrs by crystal violet staining assay. Format: functional, organism-based. On the technique in general: Damage to the host cells serves as the signal in cytopathic effect assays.

Molecules are shown by their SMILES.

The term IC50 denotes the concentration needed to halve the response being measured. Regarding `CC(C)=C1NC(=O)/C(=C(N)\C=C\C[C@H](C)O)C1=O`, the IC50 amounted to 276 µM.

As to `NC(=O)c1ncn([C@@H]2O[C@H](CO)[C@@H](O)[C@H]2O)n1` [RIBAVIRIN], the IC50 was 131 µM.

The values are drawn from ChEMBL document CHEMBL3108766, “Cladosins A-E, hybrid polyketides from a deep-sea-derived fungus, Cladosporium sphaerospermum” (J Nat Prod, 2014).
